Laboratory results from patent US9557338B2 (SIGNAL PHARMACEUTICALS, LLC, priority 2012, dated 2017).
Like-named read-outs stand apart in the source and are kept apart here.

Assays:
Assay type in all cases: cell-based
[1] = biological target: T1, mTORC2 (Homo sapiens, UniProt P42345); assay: Inhibition of mTORC2 measured by phosphorylation of pathway markers (FIG. 1); conditions: phosphorylation of pathway markers Akt, PRAS40, GSK-3β, p70S6, S6, 4-EBP1
T1 construct: endogenous in cells; host or cells: PC3, A549, HCT116, U-87 MG, MDA-MB-231, NCI-H23, HT-29
Description: (§1) The activity of the TORC1 complex can be followed from the phosphorylation status of 4E-BP1(T46), a direct substrate of mTOR kinase and S6RP(S235/S236), a downstream substrate from mTOR. The activity of the TORC2 complex can be followed directly from the phosphorylation status of Akt(S473) and indirectly from the phosphorylation status of AKT substrates, GSK3β(S9) and PRAS40(T246). […] Full activation of Akt requires an additional phosphorylation on T308 that is done by PDK1 and is speculated to be co-dependent with the TORC2 phosphorylation of the Akt(S473).

[2] = test system: MDA-MB-231; assay: Growth inhibition (cell proliferation assay), MDA-MB-231; conditions: read-out: Compound 1 Growth Inhibition IC50
[3] = test system: Phospho-GSK3β(S9); assay: Luminex multiplex assay, Phospho-GSK3β(S9)
Procedure, shortened: (§2)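 Cells (PC3; HCT-116, MDA-MB-231 and HT29 with 500 ng/mL recombinant human IGF-I for the final 10 min) treated with compound or rapamycin over a concentration range for 1 h at 37° C, 5% CO2. Lysates read by bead-based Luminex sandwich immunoassay, 3 h at room temperature, RPE anti-rabbit detection, quantified against phosphoprotein standard curves.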

[4] = test system: S6RP(S235/S236); assay: Inhibition of S6RP(S235/S236) phosphorylation in cell lines; conditions: read-out: p-S6RP(S235/S236)
[5] = biological target: T2, mTORC1 (Homo sapiens, UniProt P42345); assay: Inhibition of mTORC1 measured by phosphorylation of pathway markers (FIG. 1); conditions: phosphorylation of pathway markers Akt, PRAS40, GSK-3β, p70S6, S6, 4-EBP1
T2 construct: endogenous in cells; host or cells: PC3, A549, HCT116, U-87 MG, MDA-MB-231, NCI-H23, HT-29
Description: as §1

[6] = test system: Phospho-4E-BP1(T46); assay: Luminex multiplex assay, Phospho-4E-BP1(T46); conditions: read-out: p-4E-BP1(T46)
Description: Determination of Phospho-GSK3β(S9), Phospho-PRAS40(T246) and Phospho-4E-BP1(T46) and the Effect of Compound 1 or Rapamycin.
The multiplex Luminex assay format differs from conventional enzyme-linked immunosorbent assay (ELISA) in that the multiplex capture antibody is attached to a polystyrene bead whereas the ELISA capture antibody is attached to the microplate well. The use of the suspension bead-based technology enables the multiplexing capabilities of the Luminex assays. The xMAP® technology uses 5.6 micron polystyrene microspheres, which are internally dyed with red and infrared fluorophores of differing intensities. Each bead is given a unique number, or bead region, allowing differentiation of one bead from another. Beads covalently bound to different specific antibodies can be mixed in the same assay, utilizing a 96-well microplate format. At the completion of the sandwich immunoassay, beads can be read, using the Luminex 100™ or Luminex 200 detection system, in single-file by dual lasers for classification and quantification of each analyte. The Akt-Pathway Phospho 5-plex kit used was custom made and includes the ability to simultaneously measure p-GSK3β (S9), p-PRAS40(T246), and p-4E-BP1(T46).
Cells were plated at the required density. The cells were treated with either Compound 1 or rapamycin over a range of concentrations for 1 hour in 5% CO2 at 37° C. Compound 1 and rapamycin were used at the same concentrations as for the proliferation assay. As for the cell proliferation assay, a reference standard was included in the assay for PC3 cells and the coefficient of variation for assay of p-GSK3β(S9) was 37.8% (n=30), p-PRAS40(T246) was 27.8% (n=30) and for p4E-BP1(T46) was 13.5% (n=4). For three cell lines (HCT-116, MDA-MB-231 and HT29) in the assay for phosphorylation of GSK3β, PRAS40 and 4E-BP1, IGF-I stimulation (500 ng/mL, recombinant human IGF-I) for the last 10 min of incubation was used. The media was aspirated from the wells and the plate was placed on ice. Then 35 μL of Lysis Buffer was added to each well and incubated on ice for at least 30 minutes. During the incubation, the standard curve for each phosphoprotein was prepared. The standards provided were reconstituted and serial dilutions were prepared according to the manufacturer's instructions. At the end of the cell lysis step, […] of the lysate was transferred to a V-bottom plate and spun at 4° C. at 2000 rpm for 5 minutes. Both the 1× Luminex bead and 1× detector antibody solutions were prepared during this time. The 1× bead solution was vortexed and 25 μL was added into each well of a black round bottom plate. Then 50 μL of the 1× detector antibody was added to each well. Fifty microliters (50 μL) of the prepared standards were added to the designated wells. Then 25 μL of the assay diluent was added to each well designated for the compound-treated cell lysates. At the end of the spin, 25 μL of cell lysate was added to the corresponding wells of the black assay plate. The assay plate was covered with the white plate lid and incubated for 3 hours at room temperature on an orbital shaker.
Approximately 10-15 minutes prior to the end of the first incubation, the secondary antibody solution was prepared according to the vendor's protocol. Goat anti-rabbit R-phycoerythrin red fluorescent protein (RPE) supplied as a 10× concentrate was diluted to generate a 1× goat anti-rabbit RPE stock. The 96-well filter plate was pre-wet with 200 μL of 1× Working wash solution. At the end of the 3 hour incubation, a multichannel pipette was used to transfer the entire contents from each assay well into the wells of the filter plate. The liquid from the wells was removed by aspiration with the vacuum manifold. Then 200 μL of 1× Working wash solution was added into each well. The wash solution was aspirated using the vacuum manifold after 15-30 seconds. This wash step was repeated one time. The bottom of the plate was blotted on clean paper towels to remove residual liquid. […]

[7] = test system: HCT116; assay: Growth inhibition (cell proliferation assay), HCT116; conditions: read-out: Compound 1 Growth Inhibition IC50
[8] = test system: A549; assay: Growth inhibition (cell proliferation assay), A549; conditions: read-out: Compound 1 Growth Inhibition IC50
[9] = test system: U-87 MG; assay: Growth inhibition (cell proliferation assay), U-87 MG; conditions: read-out: Compound 1 Growth Inhibition IC50
[10] = test system: Phospho-PRAS40(T246); assay: Luminex multiplex assay, Phospho-PRAS40(T246)
Procedure, shortened: as §2

[11] = test system: NCI-H23; assay: Growth inhibition (cell proliferation assay), NCI-H23; conditions: read-out: Compound 1 Growth Inhibition IC50

Q: What does the source list for CO[C@H]1CC[C@H](N2C(=O)CNc3ncc(-c4ccc(C(C)(C)O)nc4)nc32)CC1 [Compound 1, 7-(6-(2-hydroxypropan-2-yl)pyridin-3-yl)-1-((1r,4r)-4-methoxycyclohexyl)-3,4-dihydropyrazino-[2,3-b]pyrazin-2(1H)-one]?
A: inhibition of mTORC2 [1]: inhibition; IC50 [2]: 1770 nM; IC50 ([3]; HCT116, IGF-I stimulation, read-out: p-GSK3β (S9)): 220 nM; IC50 ([3]; HCT116 cell line, IGF, read-out: Luminex GSK-3β (IGF)): 359 nM; IC50 ([3]; HT-29, IGF-I stimulation, read-out: p-GSK3β (S9)): > 2000 nM; IC50 ([3]; NCI-H23, read-out: p-GSK3β (S9)): > 2000 nM; IC50 ([3]; PC3, read-out: p-GSK3β (S9)): 230 nM; IC50 ([3]; U87MG cell line, read-out: Luminex GSK-3β): 281 nM; IC50 ([3]; U-87 MG, read-out: p-GSK3β (S9)): 280 nM; IC50 ([4]; A549): 40 nM; IC50 ([4]; HCT116): 80 nM; IC50 ([4]; HT-29): 10 nM; IC50 ([4]; MDA-MB-231): 30 nM; IC50 ([4]; NCI-H23): 70 nM; IC50 ([4]; PC3): 20 nM; IC50 ([4]; U-87 MG): 190 nM; inhibition of mTORC1 [5]: inhibition; IC50 ([6]; A549): 330 nM; IC50 ([6]; HCT116, IGF-I stimulation): 390 nM; IC50 ([6]; HT-29, IGF-I stimulation): 70 nM; IC50 ([6]; MDA-MB-231, IGF-I stimulation): 120 nM; IC50 ([6]; NCI-H23): 120 nM; IC50 ([6]; PC3): 410 nM; IC50 ([6]; U-87 MG): 1340 nM; IC50 [7]: 370 nM; IC50 [8]: 320 nM; IC50 [9]: 790 nM; IC50 ([10]; A549, read-out: p-PRAS40 (T246)): 750 nM; IC50 ([10]; HCT116, IGF-I stimulation, read-out: p-PRAS40 (T246)): 430 nM; IC50 ([10]; HCT116 cell line, IGF, read-out: Luminex PRAS40 (IGF)): 430 nM; IC50 ([10]; HT-29, IGF-I stimulation, read-out: p-PRAS40 (T246)): 350 nM; IC50 ([10]; MDA-MB-231, IGF-I stimulation, read-out: p-PRAS40 (T246)): 280 nM; IC50 ([10]; NCI-H23, read-out: p-PRAS40 (T246)): 190 nM; IC50 ([10]; PC3, read-out: p-PRAS40 (T246)): 140 nM; IC50 ([10]; U87MG cell line, read-out: Luminex PRAS40): 362 nM; IC50 ([10]; U-87 MG, read-out: p-PRAS40 (T246)): 360 nM; IC50 [11]: 3710 nM
